Measured values: ChEMBL document CHEMBL3045562, “4-Pyridyl carbonyl compounds as thrips lures: effectiveness for Western flower thrips in y-tube bioassays” (2008)
Activity calls are given as the source filed them. The rule behind the calls is not given here.

Columns and labels:
Type in all cases: functional
[1] = system: Frankliniella occidentalis; test: Thrips luring activity against female Frankliniella occidentalis (western flower thrips) assessed as induction of thrips to walk up odor-laden arm of Y-tube olfactometer by Y-tube olfactometer bioassay
[2] = system: Frankliniella occidentalis; test: Thrips luring activity against female Frankliniella occidentalis (western flower thrips) assessed as induction of thrips to walk up odor-laden arm of Y-tube olfactometer at 1 uL by Y-tube olfactometer bioassay
[3] = system: Frankliniella occidentalis; test: Thrips luring activity against female Frankliniella occidentalis (western flower thrips) assessed as induction of thrips to walk up odor-laden arm of Y-tube olfactometer at 1 x 10^-3 uL by Y-tube olfactometer bioassay
[4] = system: Frankliniella occidentalis; test: Thrips luring activity against female Frankliniella occidentalis (western flower thrips) assessed as induction of thrips to walk up odor-laden arm of Y-tube olfactometer at 1 x 10^-2 uL by Y-tube olfactometer bioassay
[5] = system: Frankliniella occidentalis; test: Thrips luring activity against female Frankliniella occidentalis (western flower thrips) assessed as induction of thrips to walk up odor-laden arm of Y-tube olfactometer at 1 x 10^-5 uL by Y-tube olfactometer bioassay
[6] = system: Frankliniella occidentalis; test: Thrips luring activity against female Frankliniella occidentalis (western flower thrips) assessed as induction of thrips to walk up odor-laden arm of Y-tube olfactometer at 5 x 10^-1 uL by Y-tube olfactometer bioassay
[7] = system: Frankliniella occidentalis; test: Thrips luring activity against female Frankliniella occidentalis (western flower thrips) assessed as trapping of thrips using compound treated yellow sticky traps relative to untreated control under commercial greenhouse
Thrips obscuratus = test: Thrips luring activity against female New Zealand Thrips obscuratus (flower thrips) assessed as induction of thrips to walk up odor-laden arm of Y-tube olfactometer by Y-tube olfactometer bioassay
[8] = system: Frankliniella occidentalis; test: Thrips luring activity against female Frankliniella occidentalis (western flower thrips) assessed as induction of thrips to walk up odor-laden arm of Y-tube olfactometer at 1 x 10^-1 uL by Y-tube olfactometer bioassay
[9] = system: Frankliniella occidentalis; test: Thrips luring activity against female Frankliniella occidentalis (western flower thrips) assessed as induction of thrips to walk up odor-laden arm of Y-tube olfactometer at 5 x 10^-4 uL by Y-tube olfactometer bioassay
[10] = system: Frankliniella occidentalis; test: Thrips luring activity against female Frankliniella occidentalis (western flower thrips) assessed as induction of thrips to walk up odor-laden arm of Y-tube olfactometer at 5 x 10^-3 uL by Y-tube olfactometer bioassay

CCCCC(=O)OC1CC2CCC1(C)C2(C)C (centres undefined)
Activity [1]: Active

CCOC(=O)c1ccnc(Cl)c1
Activity [1]: Active

CCCC(O)c1ccncc1 (centres undefined) [1-(4-pyridyl)-1-butanol]
Activity [2]: 47%

OCCc1ccncc1 [4-(2-HYDROXYETHYL)PYRIDINE]
Activity [3]: 48% | Activity [2]: 79% | Activity [4]: 59%

O=Cc1ccncc1 [4-FORMYLPYRIDINE]
Activity [5]: Active | Activity [4]: 15%

COc1ccc(C=O)cc1 [ANISALDEHYDE]
Activity [5]: 52%

CC(C)N(C(=O)c1ccncc1)C(C)C [DI-ISOPROPYL ISONICOTINAMIDE]
Activity [6]: 81%

CCOC(=O)c1ccncc1 [ETHYL ISONICOTINATE]
fold change (FC) [7]: 14 | MAD (Thrips obscuratus): 1 ×10⁻³ microL | MAD [1]: 1 ×10⁻⁴ microL

CCOC(=O)C1CCNCC1 [ETHYL ISONIPECOTATE]
Activity [2]: 63% | Activity [4]: 49%

CCOC(=O)c1cccnc1 [ETHYL NICOTINATE]
MAD (Thrips obscuratus): 1 ×10⁻⁶ microL

CC(C)=CCOC(=O)c1ccncc1 [ISO-PENTENYL ISONICOTINATE]
Activity [2]: 49%

N#Cc1ccncc1 [ISONICOTINONITRILE]
Activity [6]: 39%

CC(C)OC(=O)c1ccncc1 [ISOPROPYL ISONICOTINATE]
MAD [1]: 1 ×10⁻² microL

CC(=O)c1ccncc1 [METHYL 4-PYRIDYLKETONE]
fold change (FC) [7]: 4.5

COC(=O)c1ccncc1 [METHYL ISONICOTINATE]
fold change (FC) [7]: 14 | MAD [1]: 1 ×10⁻⁶ microL

CCCOC(=O)c1ccncc1 [N-PROPYL ISONICOTINATE]
MAD [1]: 1 ×10⁻³ microL

CCCC(=O)c1ccncc1 [PROPYL 4-PYRIDYL KETONE]
Activity [2]: 55% | Activity [8]: 47%

OCc1ccncc1 [PYRIDINE 4-METHANOL]
Activity [2]: 52%

c1cc(C2OCCO2)ccn1 [PYRIDINE, 4-(1,3-DIOXALAN-2-YL)]
Activity [9]: 48% | Activity [6]: 61% | Activity [10]: 63%
